Results published in publication PMC5384001 (Scientific Reports, 2017).
Substitutions are numbered along the chain they refer to. Several values for one entry are separate records, joined by “and”; a condition that tells them apart may be missing. Identical values can stand only once.

Key:
GluD2-Lc(Y543Q) = target: T1, GluD2-Lc(Y543Q) (Rattus norvegicus, UniProt Q63226, A654T/Y543Q); assay: Two-electrode voltage clamp in Xenopus oocytes, inhibition of spontaneous currents; assay type: cell-based; settings: fraction of spontaneous current inhibited by saturating D-serine
T1 construct: the function of full-length receptors as well, we introduced them into the GluD2 lurcher mutant (GluD2-Lc); expressed in transfected cells; host or cells: Xenopus laevis oocytes injected with cRNA
T1 sequence (Q63226 24-1007 Y543Q/A654T): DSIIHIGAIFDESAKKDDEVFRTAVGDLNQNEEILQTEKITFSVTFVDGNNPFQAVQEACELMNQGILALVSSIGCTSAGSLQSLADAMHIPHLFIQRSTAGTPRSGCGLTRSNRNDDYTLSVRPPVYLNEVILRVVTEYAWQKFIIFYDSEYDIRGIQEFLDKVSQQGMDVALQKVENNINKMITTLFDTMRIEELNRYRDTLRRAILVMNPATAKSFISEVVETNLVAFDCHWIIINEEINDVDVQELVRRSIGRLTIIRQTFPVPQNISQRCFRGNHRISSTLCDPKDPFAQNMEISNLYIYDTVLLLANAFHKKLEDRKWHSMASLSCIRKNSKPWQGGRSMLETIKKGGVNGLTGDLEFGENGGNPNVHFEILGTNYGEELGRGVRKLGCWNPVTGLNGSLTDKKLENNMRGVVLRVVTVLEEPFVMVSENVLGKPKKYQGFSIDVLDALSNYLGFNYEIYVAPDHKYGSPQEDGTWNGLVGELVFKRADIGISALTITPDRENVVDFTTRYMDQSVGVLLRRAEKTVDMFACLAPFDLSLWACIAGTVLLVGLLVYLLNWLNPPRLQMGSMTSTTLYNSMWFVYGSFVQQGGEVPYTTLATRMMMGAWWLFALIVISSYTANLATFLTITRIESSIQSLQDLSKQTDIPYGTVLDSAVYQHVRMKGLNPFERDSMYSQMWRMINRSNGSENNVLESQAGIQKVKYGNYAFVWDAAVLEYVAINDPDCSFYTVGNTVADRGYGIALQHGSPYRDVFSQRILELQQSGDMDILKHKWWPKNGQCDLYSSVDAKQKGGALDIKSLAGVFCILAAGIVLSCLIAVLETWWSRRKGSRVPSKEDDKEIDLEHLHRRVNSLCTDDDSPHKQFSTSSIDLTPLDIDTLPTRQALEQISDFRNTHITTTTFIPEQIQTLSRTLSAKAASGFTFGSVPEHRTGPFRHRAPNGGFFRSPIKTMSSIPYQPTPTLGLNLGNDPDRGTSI

[1] = target: T2, GluD2-Lc(Y543Q)-(HS2)GluN1 (Rattus norvegicus, UniProt Q63226, A654T/A766F/D767R/N763E/R768S/T764L/V761T/V765F/Y543Q); assay: as above; assay type: cell-based; settings: fraction of spontaneous current inhibited by saturating D-serine
T2 construct: the function of full-length receptors as well, we introduced them into the GluD2 lurcher mutant (GluD2-Lc); expressed in transfected cells; host or cells: Xenopus laevis oocytes injected with cRNA
T2 sequence (Q63226 24-1007 Y543Q/A654T/V761T/N763E/T764L/V765F/A766F/D767R/R768S): T1 sequence (Q63226 24-1007 Y543Q/A654T) with V738T, N740E, T741L, V742F, A743F, D744R, R745S

## N[C@H](CO)C(=O)O [D-serine]
GluD2-Lc(Y543Q)
  D-serine efficacy Mean ± SEM: 36% and 36.2 ± 0.6%
[1]
  D-serine efficacy Mean ± SEM: 24.1 ± 0.4%
